How the values were obtained:
Format in all cases: cell-based
OVCAR-3 = assay: NCI human tumor cell line screen, Ovarian OVCAR-3; conditions: for GI-50 / LC-50 / TGI: Ovarian OVCAR-3
Excerpt: (§1) Current research in the control of cancer in the United States is coordinated by the National Cancer Institute (NCI). To determine whether a substance has anti-cancer properties, the NCI has established a systematic protocol. […] The protocol, and the established statistical means for analyzing the results obtained by the standardized testing are fully described in the literature. […] Both of these references are incorporated herein by this reference thereto.

SF-295 = assay: NCI human tumor cell line screen, CNS SF-295; conditions: for GI-50 / LC-50 / TGI: CNS SF-295
Excerpt: as §1

A498 = assay: NCI human tumor cell line screen, Renal A498; conditions: for GI-50 / LC-50 / TGI: Renal A498
Excerpt: as §1

NCI-H460 = assay: NCI human tumor cell line screen, Lung-NSC NCI-H460; conditions: for GI-50 / LC-50 / TGI: Lung-NSC NCI-H460
Excerpt: as §1

KM20L2 = assay: NCI human tumor cell line screen, Colon KM20L2; conditions: for GI-50 / LC-50 / TGI: Colon KM20L2; for GI50, minipanel cell line E: minipanel comparison
Excerpt: as §1

SK-MEL-5 = assay: NCI human tumor cell line screen, Melanoma SK-MEL-5; conditions: for GI-50 / LC-50 / TGI: Melanoma SK-MEL-5
Excerpt: as §1

human tumor cell lines = assay: Inhibition of human tumor cell lines (general statements); conditions: for GI50: for at least six cell lines
Excerpt: Current research in the control of cancer in the United States is coordinated by the National Cancer Institute (NCI). To determine whether a substance has anti-cancer properties, the NCI has established a systematic protocol. This protocol, which involves the testing of a substance against a standard cell line panel containing 60 human tumor cell lines, has been verified and is accepted in scientific circles. The protocol, and the established statistical means for analyzing the results obtained by the standardized testing are fully described in the literature. See: Boyd, Dr. Michael R., Principles & Practice of Oncology, PPO Updates, Volume 3, Number 10, October 1989, for an in depth description of the testing protocol; and Paull, K. D., "Display and Analysis of Patterns of Differential Activity of Drugs Against Human Tumor Cell Lines; Development of Mean Graph and COMPARE Algorithm", Journal of the National Cancer Institute Reports, Vol. 81, No. 14, Page 1088, Jul. 14, 1989 for a description of the methods of statistical analysis. Both of these references are incorporated herein by this reference thereto.

| Substance | GI-50 (OVCAR-3) | LC-50 (OVCAR-3) | TGI (OVCAR-3) | GI-50 (SF-295) | LC-50 (SF-295) | TGI (SF-295) | GI-50 (A498) | LC-50 (A498) | TGI (A498) | GI-50 (NCI-H460) | LC-50 (NCI-H460) | TGI (NCI-H460) | GI-50 (KM20L2) | LC-50 (KM20L2) | TGI (KM20L2) | GI-50 (SK-MEL-5) | LC-50 (SK-MEL-5) | TGI (SK-MEL-5) | further results |
| --- | --- | --- | --- | --- | --- | --- | --- | --- | --- | --- | --- | --- | --- | --- | --- | --- | --- | --- | --- |
| L-Dolavalyl-L-Valyl-N-Methyl-(S,S,R)-Dolaisoleucyl-(S,R,R)-Dolaproyl-L-Phenylalanineamide-N-(1-adamantane) [Compound 9j] | 0.000019 µg/mL | > 0.0001 µg/mL | 0.055 ng/mL | 0.000030 µg/mL | > 0.0001 µg/mL | > 0.1 ng/mL | 0.000034 µg/mL | > 0.0001 µg/mL | > 0.1 ng/mL | 0.000014 µg/mL | > 0.0001 µg/mL | 0.057 ng/mL | 0.000027 µg/mL | > 0.0001 µg/mL | 0.072 ng/mL | 0.000022 µg/mL | > 0.0001 µg/mL | > 0.1 ng/mL | – |
| L-Dolavalyl-L-Valyl-N-Methyl-(S,S,R)-Dolaisoleucyl-(S,R,R)-Dolaproyl-L-Phenylalanineamide-N-[2-(4-methylthiazole)] [Compound 9b] | 0.00000020 µg/mL | – | 0.012 ng/mL | 0.0000026 µg/mL | > 0.0001 µg/mL | > 0.1 ng/mL | 0.0000053 µg/mL | > 0.0001 µg/mL | > 0.1 ng/mL | 0.00000046 µg/mL | > 0.0001 µg/mL | 0.013 ng/mL | 0.0000034 µg/mL | > 0.0001 µg/mL | 0.017 ng/mL | 0.00000081 µg/mL | > 0.0001 µg/mL | > 0.1 ng/mL | – |
| L-Dolavalyl-L-Valyl-N-Methyl-(S,S,R)-Dolaisoleucyl-(S,R,R)-Dolaproyl-L-Phenylalanineamide-N-(2-thiazole) [Compound 9a] | 0.0000005 µg/mL | 0.000088 µg/mL | 0.0044 ng/mL | 0.0000038 µg/mL | – | > 0.1 ng/mL | 0.0000056 µg/mL | – | 0.09 ng/mL | 0.0000018 µg/mL | – | 0.009 ng/mL | 0.0000020 µg/mL | – | 0.011 ng/mL | 0.0000014 µg/mL | – | 0.08 ng/mL | – |
| L-Dolavalyl-L-Valyl-N-Methyl-(S,S,R)-Dolaisoleucyl-(S,R,R)-Dolaproyl-L-Phenylalanineamide-N-(methenyl-2-pyridine) [Compound 9i] | 0.000056 µg/mL | > 0.01 µg/mL | 2 ng/mL | 0.00036 µg/mL | > 0.01 µg/mL | > 10 ng/mL | 0.00059 µg/mL | > 0.01 µg/mL | > 10 ng/mL | 0.000051 µg/mL | > 0.01 µg/mL | 1 ng/mL | 0.00033 µg/mL | > 0.01 µg/mL | > 10 ng/mL | 0.000029 µg/mL | > 0.01 µg/mL | > 10 ng/mL | – |
| L-Dolavalyl-L-Valyl-N-Methyl-(S,S,R)-Dolaisoleucyl-(S,R,R)-Dolaproyl-L-Phenylalanineamide-N-(2-benzothiazole) [Compound 9e] | 0.000000033 µg/mL | – | 0.00019 ng/mL | 0.00000011 µg/mL | – | 0.00096 ng/mL | – | – | > 0.001 ng/mL | 0.000000039 µg/mL | – | 0.00044 ng/mL | – | – | 0.0007 ng/mL | 0.000000030 µg/mL | – | > 0.001 ng/mL | GI50, minipanel cell line C (A498; minipanel comparison, column C (key not visible; values match A498)): 0.00023 ng/mL; GI50, minipanel cell line E (KM20L2): 0.00026 ng/mL; GI50 (human tumor cell lines): less than 10^-7 μg/ml |
| L-Dolavalyl-L-Valyl-N-Methyl-(S,S,R)-Dolaisoleucyl-(S,R,R)-Dolaproyl-L-Phenylalanineamide-N-[2-(6-methoxybenzo-thiazole)] [Compound 9f] | 0.00032 µg/mL | > 0.01 µg/mL | 1.1 ng/mL | 0.00055 µg/mL | > 0.01 µg/mL | > 10 ng/mL | 0.00037 µg/mL | > 0.01 µg/mL | > 10 ng/mL | 0.00033 µg/mL | > 0.01 µg/mL | 1.6 ng/mL | 0.00036 µg/mL | > 0.01 µg/mL | 2.2 ng/mL | 0.000090 µg/mL | > 0.01 µg/mL | > 10 ng/mL | – |
| L-Dolavalyl-L-Valyl-N-Methyl-(S,S,R)-Dolaisoleucyl-(S,R,R)-Dolaproyl-L-Phenylalanineamide-N-[2-(4-phenylthiazole)] [Compound 9c] | 0.000020 µg/mL | > 0.001 µg/mL | 0.13 ng/mL | 0.000065 µg/mL | > 0.001 µg/mL | > 1 ng/mL | 0.000057 µg/mL | > 0.001 µg/mL | 0.72 ng/mL | 0.000056 µg/mL | > 0.001 µg/mL | 0.51 ng/mL | 0.0002 µg/mL | > 0.001 µg/mL | 0.75 ng/mL | 0.000043 µg/mL | > 0.001 µg/mL | 0.33 ng/mL | – |
| L-Dolavalyl-L-Valyl-N-Methyl-(S,S,R)-Dolaisoleucyl-(S,R,R)-Dolaproyl-L-Phenylalanineamide-N-(methenyl-2-thiophene) [Compound 9h] | < 0.000001 µg/mL | 0.0097 µg/mL | 0.28 ng/mL | 0.00014 µg/mL | > 0.01 µg/mL | > 10 ng/mL | 0.000055 µg/mL | > 0.01 µg/mL | 6.9 ng/mL | 0.0000089 µg/mL | > 0.01 µg/mL | 0.37 ng/mL | 0.000049 µg/mL | > 0.01 µg/mL | 1.3 ng/mL | < 0.000001 µg/mL | > 0.01 µg/mL | > 10 ng/mL | – |
| (R)-Doe-isoDolastatin 10 [reference compound] | – | – | – | – | – | – | – | – | – | – | – | – | – | – | – | – | – | – | human cancer cell line activity as compared to Dolastatin 10 (human tumor cell lines): did not show any significant difference |
| L-Dolavalyl-L-Valyl-N-Methyl-(S,S,R)-Dolaisoleucyl-(S,R,R)-Dolaproyl-L-Phenylalanineamide-N-[2-(1,3,4-thiadiazole)] [Compound 9d] | 0.0000031 µg/mL | > 0.0001 µg/mL | 0.16 ng/mL | 0.000024 µg/mL | > 0.0001 µg/mL | > 0.1 ng/mL | 0.000039 µg/mL | > 0.0001 µg/mL | > 0.1 ng/mL | 0.0000036 µg/mL | > 0.0001 µg/mL | 0.061 ng/mL | 0.0000099 µg/mL | 0.00069 µg/mL | 0.015 ng/mL | 0.0000082 µg/mL | 0.00043 µg/mL | 0.007 ng/mL | – |
| L-Dolavalyl-L-Valyl-N-Methyl-(S,S,R)-Dolaisoleucyl-(S,R,R)-Dolaproyl-L-Phenylalanineamide-N-(3-quinoline) [Compound 9g] | – | > 0.000001 µg/mL | 7.9e-05 ng/mL | – | > 0.000001 µg/mL | 0.00061 ng/mL | 0.000000100 µg/mL | > 0.000001 µg/mL | > 0.001 ng/mL | – | > 0.000001 µg/mL | 0.00012 ng/mL | – | > 0.000001 µg/mL | 0.00023 ng/mL | – | > 0.000001 µg/mL | > 0.001 ng/mL | GI50, minipanel cell line A (OVCAR-3; minipanel comparison, column A (key not visible; values match OVCAR-3)): 4.6e-07 ng/mL; GI50, minipanel cell line B (SF-295; minipanel comparison, column B (key not visible; values match SF-295)): 4e-05 ng/mL; GI50, minipanel cell line D (NCI-H460; minipanel comparison, column D (key not visible; values match NCI-H460)): 1.3e-05 ng/mL; GI50, minipanel cell line E (KM20L2): 3.9e-05 ng/mL; GI50, minipanel cell line F (SK-MEL-5; minipanel comparison, column F (key not visible; values match SK-MEL-5)): 3e-06 ng/mL; GI50 (human tumor cell lines): less than 10^-7 μg/ml |
